Among the test systems are MDA-MB-435; OVCAR-3; EKVX; MOLT-4; MDA-N; SF-539; A549; SK-MEL-28; SN12C; UO-31; SF-268; BT-549; DU-145; TK-10; T47D; M14; Malme-3M.
Test in all cases: growth of human tumour cells (NCI), 48 h

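Test compounds were applied to cells in 96-well plates for 48 hours at 5 doses. GI50 marks 50% less growth.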 Calls of active or inactive are those of the source. Rule as the data show it: active = GI50 up to about 1.1 µM and inactive = higher.

On to `COc1cc(C(=O)C2CC3(CCC2(O)c2cc(OC)c(OC)c(OC)c2)CC(=O)Nc2ccccc2C3=O)cc(OC)c1OC` (configuration not stated), for which the GI50 in the test with MDA-MB-435 is > 100 µM (inactive); in the test with OVCAR-3, > 100 µM (inactive); in the test on EKVX, > 100 µM (inactive); in the test on MOLT-4, 33 µM (inactive); in the test on MDA-N, > 100 µM (inactive); with SF-539, > 100 µM (inactive). Moreover, the GI50 with A549 was > 100 µM (inactive); in the test on SK-MEL-28 it was > 100 µM (inactive); with SN12C, > 100 µM (inactive); in the test on UO-31 it was 33.7 µM (inactive); in the test on SF-268 it was > 100 µM (inactive); in the test on BT-549 it was > 100 µM (inactive). The GI50 in the test on DU-145 is > 100 µM (inactive); in the test on TK-10 it was > 100 µM (inactive); with T47D it was 36.6 µM (inactive); in the test with M14, 91.2 µM (inactive); in the test on Malme-3M it was > 100 µM (inactive).
As for `CC1(C)C=CC(=O)C(O)C(C)(C)C1=O` (configuration not stated), the GI50 in the test with MDA-MB-435 is 53.3 µM (inactive); in the test with OVCAR-3 it was 29.1 µM (inactive); with EKVX it was > 100 µM (inactive); in the test with MOLT-4, 7.05 µM (inactive); in the test with MDA-N, 52.8 µM (inactive); in the test with SF-539, 73.6 µM (inactive). The GI50 with A549 is > 100 µM (inactive); in the test on SK-MEL-28, > 100 µM (inactive); in the test on SN12C it was > 100 µM (inactive); in the test with UO-31, > 100 µM (inactive); in the test on SF-268, 30.1 µM (inactive); in the test with BT-549, 68.1 µM (inactive). Besides, the GI50 in the test on DU-145 was > 100 µM (inactive); in the test with TK-10 it was 51.5 µM (inactive); in the test on T47D, > 100 µM (inactive); with M14, > 100 µM (inactive); in the test on Malme-3M, 17.5 µM (inactive).
As for `CCOC(=O)/C(SC#N)=C(/N)N1CCCC1`, the GI50 in the test with MDA-MB-435, in the test with OVCAR-3, with EKVX, in the test with MOLT-4, with MDA-N and with SF-539 was > 100 µM (inactive) throughout. Besides, the GI50 with A549, in the test on SK-MEL-28, in the test with SN12C, in the test with UO-31, in the test with SF-268 and in the test with BT-549 was > 100 µM (inactive) each time. Besides, the GI50 with DU-145, with TK-10, with T47D, with M14 and in the test with Malme-3M was > 100 µM (inactive) throughout.
In the case of `CC1(C)CC(=O)c2c(nc3c4c([nH]c(-c5ccc([N+](=O)[O-])cc5)c24)CC(C)(C)C3)C1`, the GI50 with MDA-MB-435 was 24.7 µM (inactive); in the test with OVCAR-3, 85.5 µM (inactive); in the test on EKVX, 61.4 µM (inactive); in the test with MOLT-4 it was 4.14 µM (inactive); in the test on MDA-N, 33 µM (inactive); in the test on SF-539, 65.3 µM (inactive). In addition, the GI50 in the test with A549 was 27.6 µM (inactive); in the test with SK-MEL-28 it was 60.8 µM (inactive); in the test with SN12C, 53.3 µM (inactive); in the test on UO-31, 29.6 µM (inactive); in the test on SF-268, 50.9 µM (inactive); in the test on BT-549 it was 34 µM (inactive). In addition, the GI50 with DU-145 is 81.8 µM (inactive); with TK-10, 50.7 µM (inactive); in the test with T47D, 26.9 µM (inactive); in the test with M14, 27.7 µM (inactive); with Malme-3M, > 100 µM (inactive).
`CC(=O)[C@H]1CC[C@@H]2[C@]1(C)CC=C1[C@]23C=C[C@]2(C[C@@H](O)CC[C@]12C)C(C(=O)O)C3C(=O)O` (some centres not stated): the GI50 in the test with MDA-MB-435, with OVCAR-3, with EKVX, in the test with MOLT-4, in the test with MDA-N and with SF-539 was > 100 µM (inactive) each time. The GI50 with A549, in the test with SK-MEL-28, with SN12C, with UO-31, in the test with SF-268 and in the test with BT-549 was > 100 µM (inactive) throughout. Moreover, the GI50 with DU-145, in the test with TK-10, in the test on T47D, with M14 and with Malme-3M was > 100 µM (inactive) in each case.
With `CC(NNC(=O)c1cc[n+]([BH2-]C#N)cc1)c1ccc(Cl)cc1Cl` (configuration not stated), the GI50 with MDA-MB-435 was 42.1 µM (inactive); in the test on OVCAR-3 it was 25 µM (inactive); in the test with EKVX, 24.5 µM (inactive); in the test with MOLT-4, 17.5 µM (inactive); with MDA-N, > 100 µM (inactive); in the test on SF-539 it was 53.7 µM (inactive). Besides, the GI50 in the test on A549 is 37.2 µM (inactive); in the test with SK-MEL-28, 44.5 µM (inactive); in the test with SN12C, > 100 µM (inactive); in the test on UO-31 it was 26.2 µM (inactive); in the test with SF-268 it was 41.2 µM (inactive); in the test with BT-549 it was 46.2 µM (inactive). Moreover, the GI50 is 68.5 µM (inactive) in the test on DU-145; 48.6 µM (inactive) in the test with TK-10; 34.5 µM (inactive) in the test on T47D; 42.4 µM (inactive) in the test on M14; 43.9 µM (inactive) in the test on Malme-3M.
Consider `CN(C)c1cccc(/C=C(\C#N)c2ccccc2)c1`, for which the GI50 with MDA-MB-435 was 0.0478 µM (active); with OVCAR-3, 0.157 µM (active); in the test on EKVX, 2.14 µM (inactive); in the test with MOLT-4 it was 0.493 µM (active); in the test with MDA-N it was 0.0451 µM (active); in the test on SF-539, 0.587 µM (active). Further, the GI50 is 2.61 µM (inactive) in the test with A549; 7.33 µM (inactive) in the test with SK-MEL-28; 1.15 µM (inactive) with SN12C; 5.46 µM (inactive) in the test on UO-31; 8.77 µM (inactive) in the test on SF-268; 21.3 µM (inactive) in the test on BT-549. In addition, the GI50 in the test on DU-145 is 1.65 µM (inactive); in the test with TK-10, 0.944 µM (active); in the test with T47D it was 0.525 µM (active); in the test with M14, 0.277 µM (active); in the test with Malme-3M, 1.95 µM (inactive).
For the molecule `CCOC(=O)c1c(-c2cccc(Cl)c2)c(C(=O)OC)c(C)c2sc(C=O)nc12`, the GI50 was 19.6 µM (inactive) with MDA-MB-435; 15.2 µM (inactive) with OVCAR-3; 16.6 µM (inactive) with EKVX; 12.8 µM (inactive) with MOLT-4; 19.9 µM (inactive) in the test with MDA-N; 18.1 µM (inactive) in the test with SF-539. Further, the GI50 in the test with A549 is 49.9 µM (inactive); in the test with SK-MEL-28 it was 18 µM (inactive); with SN12C, 16.6 µM (inactive); in the test with UO-31, 17.8 µM (inactive); in the test with SF-268, 19 µM (inactive); in the test on BT-549 it was 17.3 µM (inactive). In addition, the GI50 was 17.7 µM (inactive) with DU-145; 29.3 µM (inactive) with TK-10; 14.8 µM (inactive) in the test on T47D; 17 µM (inactive) in the test on M14; 19.3 µM (inactive) with Malme-3M.
As for `C[C@]12CC[C@H](O)CC1=CC[C@@H]1[C@@H]2CC[C@]2(C)C(=O)CC[C@@H]12` [PRASTERONE], the GI50 with MDA-MB-435 is > 100 µM (inactive); in the test with OVCAR-3 it was > 100 µM (inactive); with EKVX it was 75.2 µM (inactive); with MOLT-4, > 100 µM (inactive); in the test with MDA-N it was > 100 µM (inactive); with SF-539 it was > 100 µM (inactive). Further, the GI50 in the test on A549, in the test with SK-MEL-28, in the test with SN12C, in the test with UO-31, in the test with SF-268 and with BT-549 was > 100 µM (inactive) each time. Further, the GI50 in the test on DU-145, in the test on TK-10, in the test with T47D, in the test with M14 and with Malme-3M was > 100 µM (inactive) each time.
Regarding `O=C1CC2(CCC(O)(c3cccc4ccccc34)C(C(=O)c3cccc4ccccc34)C2)C(=O)c2ccccc2N1` (configuration not stated), the GI50 in the test on MDA-MB-435 is 72.6 µM (inactive); in the test with OVCAR-3 it was 39.9 µM (inactive); in the test on EKVX, 28.9 µM (inactive); in the test on MOLT-4, 25.9 µM (inactive); in the test with MDA-N, 18.4 µM (inactive); with SF-539, 48 µM (inactive). For the same molecule, the GI50 is > 100 µM (inactive) in the test on A549; 11.1 µM (inactive) with SK-MEL-28; 72.8 µM (inactive) with SN12C; 23.7 µM (inactive) with UO-31; 15.7 µM (inactive) in the test on SF-268; 46.7 µM (inactive) with BT-549. In addition, the GI50 with DU-145 was 25.8 µM (inactive); in the test on TK-10, 29.1 µM (inactive); in the test on T47D, 34.5 µM (inactive); in the test on M14, 29.8 µM (inactive); in the test on Malme-3M, > 100 µM (inactive).
For `O=C(Cc1ccccc1)Nc1nc2ccc(Cl)cc2c2nc(-c3ccco3)nn12`, the GI50 is > 100 µM (inactive) in the test on MDA-MB-435; > 100 µM (inactive) with OVCAR-3; > 70.8 µM (inactive) with EKVX; > 100 µM (inactive) in the test with MOLT-4; > 100 µM (inactive) in the test on MDA-N; 7.69 µM (inactive) with SF-539. Also, the GI50 in the test with A549 was > 100 µM (inactive); in the test on SK-MEL-28, > 100 µM (inactive); in the test on SN12C it was > 100 µM (inactive); in the test with UO-31, > 100 µM (inactive); in the test with SF-268, > 62.8 µM (inactive); in the test with BT-549 it was > 100 µM (inactive). Besides, the GI50 with DU-145 is > 100 µM (inactive); in the test with TK-10, > 35.1 µM (inactive); with T47D, > 100 µM (inactive); in the test with M14, > 100 µM (inactive); with Malme-3M it was 53.7 µM (inactive).

(Values after ChEMBL document CHEMBL1201862, “PubChem BioAssay data set” (2004).)
